Source: patent publication US20160235866A1, “MRI CONTRAST AGENTS FOR CELL LABELING” (THE GOVERNING COUNCIL OF THE UNIVERSITY OF TORONTO, priority 2013, published 2016)
Entries after “also recorded” stand apart in the source; their conditions may differ.

Tests used:
[1] = test system: Human breast cancer cells MDA-MB-231; experiment: Intracellular contrast agent concentration by GFAAS of cell digests; assay type: cell-based; details: for Mn / Mn content per cell relative to control: GFAAS of cell digests; for Mn: 83 μM incubation for 2 hours; for Mn content per cell relative to control: control = 1
Method: (§1) Human breast cancer cells MDA-MB-231 were grown at 37° C. with 5% CO2 in 1640-RPMI medium supplemented with 10% fetal bovine serum and 0.5% penicillin streptomycin. Contrast agents were quantified for manganese content by flame AAS prior to cell labeling. MnTCP was dissolved in ultrapure water and MnTriAMP was dissolved in DMSO to give 17 mM stock solutions. The stock solutions were added to the medium with the cells resulting in 83 μM incubation of 2-MnTriAMP or 1-MnTCP for 2 hours. The medium was removed and the cells were washed with fresh medium 5× and then were harvested by washing with PBS followed by addition of 0.05% trypsin EDTA to detach the cells. Viability was assessed directly after labeling with trypan blue exclusion test and observation of cell morphology by phase microscopy.
The intracellular contrast agent concentration was determined after cell labeling by centrifugation of a known number of cells followed by removal of the supernatant and digestion of the cells by addition of 1 M nitric acid (0.5 ml) and 30 min of heating at 70° C. Then 3 ml of ultrapure water was added to the digested cells, the mixture was filtered and then quantified by graphite furnace atomic absorption spectroscopy (GFAAS) shown in Table 3.

[2] = test system: MDA-MB-231 breast cancer cell pellets; experiment: MRI T1 and T2 time measurements of labeled cell pellets; assay type: cell-based, Human; details: MDA-MB-231 cell pellets after 83 μM incubation for 2 hours
Method: as §1
For MRI, cell pellets were formed by centrifugation at 440 g for 10 minutes. Subsequent MR was done with a T1-weighted 2D spin-echo image: TR=100 ms, TE=14.163 ms, 3 mm slice thickness, 0.5×0.5 mm in-plane resolution (FIG. 1).

[3] = test system: Human breast cancer cells MDA-MB-231; experiment: Viability by trypan blue exclusion test after cell labeling; assay type: cell-based; details: for Viability (%) (±SEM): 83 μM incubation, MDA-MB-231
Method: as §1

[4] = 0.47 T (20 MHz for 1H Larmor frequency), 37° C.; cited from earlier work

| Compound | Mn [1] [mM/cell] | Mn content per cell relative to control [1] | T1 [2] [ms] | T2 [2] [ms] | Viability (%) (±SEM) ([3]; 0 hours after 2 h treatment) | Viability (%) (±SEM) ([3]; 3 days after 2 h treatment) | relaxivity [4] [mM⁻¹ s⁻¹] | cellular uptake (in words) ([1]; MDA-MB-231, compared to 1-MnTCP, from relaxation times and GFAAS data) | toxicity / cell viability after labeling (in words) ([3]; MDA-MB-231 after labeling) |
| --- | --- | --- | --- | --- | --- | --- | --- | --- | --- |
| O=C(O)c1c2nc(c(C(=O)O)c3ccc([n-]3)c(C(=O)O)c3nc(c(C(=O)O)c4ccc1[n-]4)C=C3)C=C2.[Cl-].[Mn+3] [1-MnTCP, [5,10,15,20-tetrakis(carboxy)porphyrinato]manganese(III) chloride] | 1.90E−13 | 33.22 | 1072.1 ± 28.0 | 108.1 ± 9.3 | 98 ± 1 | 80 ± 6 |  |  |  |
| MnTPPS |  |  |  |  |  |  | ~12 |  |  |
| [5-carboxy-10,15,20-tris(acetoxymethylcarboxy)porphyrinato]manganese(III) [2-MnTriAMP] | 6.05E−13 | 105.83 | 215.4 ± 12.1 | 66.7 ± 4.4 | 97 ± 2 | 87 ± 6 |  | significant uptake; also recorded: sufficient cellular uptake and retention | without affecting the cell viability |
